Data taken from US20220098228A1, “METHODS AND COMPOSITIONS FOR IMPROVING THE IMMUNE SYSTEM AND PROVIDING IMMUNO-PROTECTION” (Natreon, Inc., priority 2020, published 2022).
Marks after values point to notes of the source that are not given here.

Legend:
peritoneal macrophages [1] = test: Peritoneal macrophage viability, trypan blue exclusion (Example III); type: in vivo, Swiss albino mice
Procedure: (§1) Male and female Swiss albino mice (n=8; 4 from each gender) weighing approximately 25±5 g, were obtained from National Research Institute of Ayurveda for Drug Development (Govt. of India), Kolkata, and were housed in polypropylene cages at 22±3° C., relative air humidity of 45 to 55%, with 12.00 h light & dark cycle (lighting on from 6:00 AM to 6:00 PM). […] The mice were acclimatized for one week in the laboratory conditions, before being used in the experiment. All experiments were conducted between 10.00 h and 14.00 h. Principles of laboratory animal care (NIH publication no. 85-23, revised 1985) was followed.
(§2) Cyclophosphamide was dissolved in distilled water and the mice were administered a single exposure (250 mg/kg, i.p.) on day 1.
(§3) 3-OH-DBP, 3,8-(OH)2-DBP, and combined 3-OH-DBP+3,8-(OH)2-DBP were administered once daily for 7 days starting from day 1. Following 7 days of treatment the mice were anaesthetized and sacrificed under anaesthesia followed by collection of peritoneal macrophages and spleen (for splenocyte isolation).
(§4) Swiss albino mice were randomly divided into 8 Groups (n=8; 4 from each gender). […] (2:10) (12 mg/kg b.w., p.o.), Group VI mice were administered 3-OH-DBP (10 mg/kg b.w., p.o.), Group VII mice were administered 3,8-(OH)2-DBP (50 mg/kg b.w., p.o.), Group VIII mice were administered [3-OH-DBP+3,8-(OH)2-DBP] (10:50) (60 mg/kg b.w., p.o.).
(§5) All the animals were sacrificed under ether anesthesia and peritoneal macrophages were lavaged using ice cold phosphate buffer saline (PBS: 0.15 M NaCl; pH: 7.4). After centrifugation (3000 rpm×10 min) at 4° C., pellets were re-suspended in PBS and cell viability was confirmed by trypan blue exclusion assay.
(§6) Results were expressed in terms of mean±SEM (n=8; 4 from each gender). Data were subjected to one way ANOVA followed by Tukey's test using GraphPad Prism 4.0 software to establish statistical significance (*p<0.05, **p<0.01, ***p<0.001, where * refers to comparison with Group I vehicle control; #p<0.05, ##p<0.01, ###p<0.001, where #refers to comparison with Group II cyclophosphamide administration; ^ap<0.05, ^aap<0.01, ^aap<0.01, where a refers to comparison of Day 7 with Day 0).

peritoneal macrophages [2] = test: NBT reduction of peritoneal macrophages (Example III); type: in vivo, Swiss albino mice; settings: for NBT reduction compared with cyclophosphamide treated mice: 3,8-(OH)2-DBP 50 mg/kg, combined 12 and 60 mg/kg; for NBT reduction compared with vehicle control: cyclophosphamide, 3-OH-DBP 2 and 10 mg/kg, combined 12 mg/kg
Procedure: as §1, §2, §3, §4, §5
Preparation of NBT solution: 0.2% NBT (nitroblue tetrazolium) in PBS (pH 7.4), 5% dextrose and HBSS. These three solutions were mixed in 6:2:4 ratios.
0.5 ml of NBT solution was added to 0.5 ml of peritoneal macrophages (1×10^6 cells/ml) in micro-centrifuge tube. This mixture was incubated at 37° C. for 2 hours. The cell suspension was centrifuged at 2000 rpm for 10 minutes. Supernatants were discarded and pellets were re-suspended in 1 ml of DMSO. The tubes were kept in boiling water bath for 10 minutes and then cooled and centrifuged at 2000 rpm for 10 minutes. The supernatants were collected and absorbance was measured at 515 nm.
as §6

[3] = mouse, in vivo
Procedure: as §1, §2, §3, §4, §6

splenocytes [4] = test: Cell viability of splenocytes, trypan blue exclusion, cyclophosphamide-induced immunosuppression (Example II); type: in vivo, Swiss albino mice; settings: 10 mg/kg body weight p.o. 7 days + cyclophosphamide 250 mg/kg i.p.; Mean ± SD, n = 6
Procedure: (§7) The mice were acclimatized for one week in the laboratory conditions, before being used in the experiment. All experiments were conducted between 10.00 hr and 14.00 hr. Principles of laboratory animal care (NIH publication no. 85-23, revised 1985) were followed.
(§8) All test compounds (DBPs and DBP glycosides) were suspended in 0.3% of CMC (Carboxymethyl Cellulose) solutions of distilled water and were administered orally for 7 days by using an intubation canula. The volume of dose was 100 μl/10 g body weight. Cyclophosphamide was dissolved in distilled water and was injected (250 mg/kg, i.p.) on day one and volume of dose was 100 μl/10 g body weight. Control animals received equivalent volume of the vehicles CMC (0.3%) solutions only.
Spleen was collected. Single cell suspension was prepared by mincing and tapping the spleen fragments on stainless steel 200-mesh in ice cold phosphate buffer saline (PBS: 0.15M NaCl pH 7.4). Cell suspension was centrifuged at 2000 rpm for 10 minutes. The pellet was re-suspended in PBS and cell viability was confirmed by trypan blue exclusion method.

peritoneal macrophages [5] = test: NBT reduction assay in peritoneal macrophages, cyclophosphamide-induced immunosuppression (Example II); type: in vivo, Swiss albino mice; settings: 10 mg/kg body weight p.o. 7 days + cyclophosphamide 250 mg/kg i.p.; Mean ± SD, n = 6
Procedure: as §7, §8
On day seven all the animals were sacrificed under ether anesthesia and peritoneal macrophages were lavaged using ice cold phosphate buffer saline (PBS: 0.15M NaCl pH-7.4). After centrifugation (3000 rpm×10 min) at 4° C. the pellet was re-suspended in PBS and cell viability was confirmed by trypan blue exclusion method. (Bala A, Haldar P K, Kar B, Naskar S and Mazumder U K, “Carbon tetrachloride: A hepatotoxin causes oxidative stress in murine peritoneal macrophage and peripheral blood lymphocyte cells” Immunopharmacol. and Immunotoxicol. 34(1): 157-162 (2012)).
Preparation of NBT solution: 0.2% NBT (nitroblue tetrazolium) in PB (Phosphate Buffer, pH 7.4), 5% dextrose and HBSS (Hank's balanced salt solution). The three solutions were mixed in 6:2:4 ratios. (Saxena A K, Singh K P, Srivastava S N, Shukla L J and Shanker R., “Immunomodulating effects of caffeine in rodents” Ind J Exptl Biol. 22: 298-301 (1984)).
Method: 0.5 ml of NBT solution was added to 0.5 ml of peritoneal macrophages (1×10^6 cells/ml) in a micro-centrifuge tube. This mixture was incubated at 37° C. for 45 minutes. The cell suspension was centrifuged at 1500 rpm for 10 minutes. Supernatant was discarded and pellet was re-suspended in 2 ml of DMSO. The tubes were kept in a boiling water bath for 10 minutes. The tubes were again centrifuged at 1500 rpm for 10 minutes. The supernatant was collected, and absorbance was measured at 515 nm.

splenocytes [6] = test: Splenocyte viability, trypan blue exclusion (Example III); type: in vivo, Swiss albino mice; settings: for % Viability Day7, splenocyte viability: Day 7
Procedure: as §1, §2, §3, §4
Spleens were collected and single cell suspension was prepared by mincing and tapping the spleen fragments on stainless steel 200-mesh in ice cold phosphate buffer saline (PBS: 0.15M NaCl; pH: 7.4). Cell suspensions were centrifuged at 2000 rpm for 10 minutes.
as §6

[7] = female mice, 3-OH-DBP 2 and 10 mg/kg, 3,8-(OH)2-DBP 10 and 50 mg/kg, combined 12 and 60 mg/kg
[8] = female mice, 10 mg/kg p.o. + cyclophosphamide 250 mg/kg i.p.
[9] = female mice, 50 mg/kg p.o. + cyclophosphamide 250 mg/kg i.p.
[10] = male mice, 3-OH-DBP 10 mg/kg, 3,8-(OH)2-DBP 50 mg/kg, combined 60 mg/kg
[11] = male mice, 10 mg/kg p.o. + cyclophosphamide 250 mg/kg i.p.
[12] = male mice, 50 mg/kg p.o. + cyclophosphamide 250 mg/kg i.p.

For O=c1oc2cc(O)ccc2c2ccc(O)cc12 [3,8-(OH)2-DBP, 3,8-dihydroxy-dibenzo-alpha-pyrone], which “peritoneal macrophage viability compared with cyclophosphamide treated mice” value (peritoneal macrophages [1]; [7]) is on record?
The value was “significantly (p<0.05, p<0.01) increased”.

What about the “% Viability Day 7, peritoneal macrophage viability” value (peritoneal macrophages [1]; [8]) of the same molecule?
The value was 65.78 ± 2.38** %.

And the “% Viability Day 7, peritoneal macrophage viability” value (peritoneal macrophages [1]; [9])?
Its value is 75.27 ± 0.53^# %.

What about the “peritoneal macrophage viability compared with cyclophosphamide treated mice” value (peritoneal macrophages [1]; [10]) of the same molecule?
Its value is “significantly (p<0.05, p<0.01) increased”.

What about the “% Viability Day 7, peritoneal macrophage viability” value (peritoneal macrophages [1]; [11]) of the same molecule?
Its value is 60.34 ± 1.84%.

And the “% Viability Day 7, peritoneal macrophage viability” value (peritoneal macrophages [1]; [12])?
Its value is 70.91 ± 1.24# %.

What about the “peritoneal macrophage viability compared with vehicle control” value (peritoneal macrophages [1]; male mice, cyclophosphamide, 3-OH-DBP 2 mg/kg, 3,8-(OH)2-DBP 10 mg/kg) of the same molecule?
The value was “significantly (p<0.05) decreased”.

And the “NBT reduction compared with cyclophosphamide treated mice” value (peritoneal macrophages [2]; female mice, 3-OH-DBP 10 mg/kg)?
Its value is “significantly (p<0.05, p<0.01, p<0.001) increased”.

And the “O.D. (515 nm) Day 7, NBT reduction of peritoneal macrophages” value (peritoneal macrophages [2]; [8])?
Its value is 0.159 ± 0.02***.

What about the “O.D. (515 nm) Day 7, NBT reduction of peritoneal macrophages” value (peritoneal macrophages [2]; [9]) of the same molecule?
The value was 0.294 ± 0.008*,###.

What about the “NBT reduction compared with vehicle control” value (peritoneal macrophages [2]; female mice, 3,8-(OH)2-DBP 10 and 50 mg/kg) of the same molecule?
The value was “significantly (p<0.05, p<0.01, p<0.001) decreased”.

What about the “NBT reduction compared with cyclophosphamide treated mice” value (peritoneal macrophages [2]; male mice, NBT reduction capacity increased) of the same molecule?
The value was “significantly (p<0.05, p<0.01, p<0.001) reversed”.

What about the “O.D (515 nm) Day 7, NBT reduction of peritoneal macrophages” value (peritoneal macrophages [2]; [11]) of the same molecule?
The value was 0.294 ± 0.04499***.

And the “O.D (515 nm) Day 7, NBT reduction of peritoneal macrophages” value (peritoneal macrophages [2]; [12])?
Its value is 0.476 ± 0.07172##.

What about the “NBT reduction compared with vehicle control” value (peritoneal macrophages [2]; male mice, 3,8-(OH)2-DBP 10 mg/kg) of the same molecule?
Its value is “significantly (p<0.01, p<0.001) decreased”.

And the “body weight Day 7 in comparison to Day 0” value [3]?
Its value is “significantly (p<0.05) decreased”.

What about the “feed intake Day 7 in comparison to Day 0” value [3] of the same molecule?
Its value is “significantly (p<0.05, p<0.01) decreased”.

What about the “feed intake compared to vehicle control” value [3] of the same molecule?
Its value is “significantly (p<0.05, p<0.01) decreased”.

What about the “water intake compared with cyclophosphamide treated mice” value [3] of the same molecule?
The value was “significantly (p<0.001) decreased”.

What about the “water intake compared with vehicle control” value [3] of the same molecule?
Its value is “significantly (p<0.001) decreased”.

And the “water intake compared with vehicle control and cyclophosphamide treated mice” value [3]?
The value was “significantly (p<0.05, p<0.001) decreased”.

What about the “% Cell Viability of splenocytes” value (splenocytes [4]) of the same molecule?
Its value is 54.90 ± 5.01%.

What about the “OD (515 nm), NBT reduction assay in peritoneal macrophages” value (peritoneal macrophages [5]) of the same molecule?
Its value is 0.144 ± 0.010^.

And the “splenocyte viability compared with cyclophosphamide treated mice” value (splenocytes [6]; [7])?
Its value is “significantly (p<0.05, p<0.01, p<0.001) increased”.

What about the “% Viability Day7, splenocyte viability” value (splenocytes [6]; [8]) of the same molecule?
The value was 89.50 ± 2.30# %.

What about the “% Viability Day7, splenocyte viability” value (splenocytes [6]; [9]) of the same molecule?
Its value is 90.87 ± 1.98## %.

And the “restoration of splenocyte viability” value (splenocytes [6]; male mice, 50 mg/kg 3,8-(OH)2-DBP (Group VII), 60 mg/kg DBP combination (Group VIII))?
Its value is “restored”.

What about the “splenocyte viability compared with cyclophosphamide treated mice” value (splenocytes [6]; [10]) of the same molecule?
Its value is “significantly higher”.

And the “% Viability Day7, splenocyte viability” value (splenocytes [6]; [11])?
The value was 68.69 ± 2.21*** %.

What about the “% Viability Day7, splenocyte viability” value (splenocytes [6]; [12]) of the same molecule?
Its value is 90.14 ± 0.36## %.

And the “splenocyte viability compared with vehicle control” value (splenocytes [6]; male mice, cyclophosphamide, 2 mg/kg 3-OH-DBP, 10 mg/kg 3,8-(OH)2-DBP, 12 mg/kg combined)?
Its value is “similarly decreased”.
